The values below come from US12240815B2, “Potent and selective human neuronal nitric oxide synthase inhibitors” (Northwestern University, priority 2020, dated 2025).

As usually defined, the Ki is a dissociation constant, usually derived from enzyme kinetics or from competition with a known ligand.

Where a name gives a salt, the structure may show the parent alone. Read-outs that look alike come from different tables or passages of the source.

One assay addresses rat nNOS (Rattus norvegicus, UniProt P29476). Nature of the assay: NO hemoglobin capture assay, rat nNOS. The class given is biochemical.
A further assay concerns the target human iNOS (Homo sapiens, UniProt P35228). Description: NO hemoglobin capture assay, human iNOS.
The next assay concerns the target human nNOS (Homo sapiens, UniProt P29475). Description: NO hemoglobin capture assay, human nNOS. Type of assay: biochemical.
The target of a further assay is human eNOS (Homo sapiens, UniProt P29474). Nature of the assay: NO hemoglobin capture assay, human eNOS.
Another assay has as its target murine macrophage iNOS (Mus musculus, UniProt P29477). Nature of the assay: NO hemoglobin capture assay, murine iNOS. Type of assay: biochemical. The following applies: pH 7.4.
[1] abbreviates: read-out: Ki HiNOS, Table 5, Ki from IC50 by Cheng-Prusoff, 8 to 11 concentrations.
[2] abbreviates: Table 5, Ki from IC50 by Cheng-Prusoff, 8 to 11 concentrations, read-out: Ki HnNOS.

Sequence of rat nNOS (P29476 whole entry): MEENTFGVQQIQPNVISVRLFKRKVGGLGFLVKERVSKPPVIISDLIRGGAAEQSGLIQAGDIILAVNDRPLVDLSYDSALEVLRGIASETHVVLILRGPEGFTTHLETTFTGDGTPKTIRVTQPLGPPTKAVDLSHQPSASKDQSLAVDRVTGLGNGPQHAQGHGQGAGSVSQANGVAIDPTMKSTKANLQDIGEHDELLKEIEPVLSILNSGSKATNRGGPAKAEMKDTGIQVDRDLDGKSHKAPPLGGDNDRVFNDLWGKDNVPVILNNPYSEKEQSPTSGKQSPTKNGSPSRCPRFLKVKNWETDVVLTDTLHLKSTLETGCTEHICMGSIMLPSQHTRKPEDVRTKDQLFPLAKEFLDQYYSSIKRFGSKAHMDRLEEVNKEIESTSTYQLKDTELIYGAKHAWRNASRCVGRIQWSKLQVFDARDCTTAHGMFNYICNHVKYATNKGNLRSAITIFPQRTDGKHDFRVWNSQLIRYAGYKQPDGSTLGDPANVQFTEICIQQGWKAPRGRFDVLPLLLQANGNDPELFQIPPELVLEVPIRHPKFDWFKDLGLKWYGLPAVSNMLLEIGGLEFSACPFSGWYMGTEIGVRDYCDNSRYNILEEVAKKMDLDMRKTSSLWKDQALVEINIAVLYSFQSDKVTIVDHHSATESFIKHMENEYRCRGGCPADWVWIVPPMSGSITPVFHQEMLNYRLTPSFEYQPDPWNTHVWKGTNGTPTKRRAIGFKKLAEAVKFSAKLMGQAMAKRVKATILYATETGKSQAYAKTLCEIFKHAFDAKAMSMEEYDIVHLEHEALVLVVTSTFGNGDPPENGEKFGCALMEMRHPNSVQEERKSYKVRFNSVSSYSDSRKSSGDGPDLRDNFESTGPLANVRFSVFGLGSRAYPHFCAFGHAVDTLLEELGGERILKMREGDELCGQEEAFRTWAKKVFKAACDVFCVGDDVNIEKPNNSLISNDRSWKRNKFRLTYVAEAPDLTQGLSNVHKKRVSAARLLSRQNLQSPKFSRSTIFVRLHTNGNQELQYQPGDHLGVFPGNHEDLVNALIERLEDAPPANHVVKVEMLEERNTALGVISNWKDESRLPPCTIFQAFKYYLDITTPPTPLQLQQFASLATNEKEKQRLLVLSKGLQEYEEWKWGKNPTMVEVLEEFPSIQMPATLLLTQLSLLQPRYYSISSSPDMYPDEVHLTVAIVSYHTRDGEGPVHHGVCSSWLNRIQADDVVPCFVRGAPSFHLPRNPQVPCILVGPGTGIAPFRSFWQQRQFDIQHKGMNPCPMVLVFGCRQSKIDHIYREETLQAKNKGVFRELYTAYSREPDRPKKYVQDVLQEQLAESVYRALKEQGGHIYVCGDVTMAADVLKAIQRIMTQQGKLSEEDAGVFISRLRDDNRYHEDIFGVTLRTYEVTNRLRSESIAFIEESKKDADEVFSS
Sequence of human nNOS (P29475 whole entry): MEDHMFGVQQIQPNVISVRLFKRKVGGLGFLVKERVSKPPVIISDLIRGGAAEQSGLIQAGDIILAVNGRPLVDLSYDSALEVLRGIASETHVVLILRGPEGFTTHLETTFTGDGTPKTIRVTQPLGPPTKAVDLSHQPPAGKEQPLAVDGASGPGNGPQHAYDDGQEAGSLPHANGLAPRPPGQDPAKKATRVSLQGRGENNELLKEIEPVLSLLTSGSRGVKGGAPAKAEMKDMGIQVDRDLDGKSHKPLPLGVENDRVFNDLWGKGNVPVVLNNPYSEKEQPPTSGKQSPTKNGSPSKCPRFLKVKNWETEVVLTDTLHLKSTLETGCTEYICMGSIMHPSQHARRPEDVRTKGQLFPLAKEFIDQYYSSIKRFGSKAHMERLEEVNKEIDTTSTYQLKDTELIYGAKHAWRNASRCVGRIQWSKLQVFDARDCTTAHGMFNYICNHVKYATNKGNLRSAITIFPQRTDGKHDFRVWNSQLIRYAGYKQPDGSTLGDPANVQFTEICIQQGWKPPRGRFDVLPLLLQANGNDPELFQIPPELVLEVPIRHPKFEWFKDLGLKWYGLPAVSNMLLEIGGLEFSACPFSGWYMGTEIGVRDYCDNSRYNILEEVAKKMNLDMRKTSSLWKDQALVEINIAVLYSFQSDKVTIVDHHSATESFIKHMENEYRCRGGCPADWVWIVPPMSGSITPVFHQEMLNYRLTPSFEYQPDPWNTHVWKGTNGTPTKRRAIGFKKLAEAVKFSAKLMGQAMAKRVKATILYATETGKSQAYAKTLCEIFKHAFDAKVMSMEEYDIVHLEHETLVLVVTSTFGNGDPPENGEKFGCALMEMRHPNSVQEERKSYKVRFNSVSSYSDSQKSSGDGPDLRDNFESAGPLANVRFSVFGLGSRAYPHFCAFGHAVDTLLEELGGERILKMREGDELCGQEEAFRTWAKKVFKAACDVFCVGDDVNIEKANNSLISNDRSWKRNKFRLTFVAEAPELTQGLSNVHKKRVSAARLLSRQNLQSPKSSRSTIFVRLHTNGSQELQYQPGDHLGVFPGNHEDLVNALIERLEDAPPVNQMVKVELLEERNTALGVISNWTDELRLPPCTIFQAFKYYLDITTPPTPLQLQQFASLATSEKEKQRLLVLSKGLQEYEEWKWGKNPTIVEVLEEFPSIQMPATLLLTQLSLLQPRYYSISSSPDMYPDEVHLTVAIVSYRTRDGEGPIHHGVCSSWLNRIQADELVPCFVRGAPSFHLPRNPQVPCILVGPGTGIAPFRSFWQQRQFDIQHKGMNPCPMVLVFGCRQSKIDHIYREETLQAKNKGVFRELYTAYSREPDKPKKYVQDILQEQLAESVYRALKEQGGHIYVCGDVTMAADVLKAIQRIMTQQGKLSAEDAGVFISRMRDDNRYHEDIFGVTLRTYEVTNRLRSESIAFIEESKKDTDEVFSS

On to `Cc1cc(N)nc(CCCN2CCN(C)CC2)c1` [Compound 72, 4-Methyl-6-(3-(4-methylpiperazin-1-yl)propyl)pyridin-2-amine], for which the Ki at rat nNOS (read-out: Ki RnNOS) was determined as 55 nM; at human iNOS (setting [1]), 10200 nM; at human nNOS (setting [2]) it was 171 nM. The molecule further showed a Selectivity hn/rn on human nNOS (Table 5) of 3.0.
On to `Cc1cc(N)nc(CCc2cc(CCCN(C)C)cc(F)c2F)c1` [Compound 10, 6-(5-(3-(dimethylamino)propyl)-2,3-difluorophenethyl)-4-methylpyridin-2-amine], for which the Ki turned out to be 19 nM at rat nNOS (pH 7.4, read-out: Ki rat nNOS); 35000 nM at human eNOS (read-out: Ki human eNOS); 1310 nM on human iNOS (read-out: Ki human iNOS); 823 nM at murine macrophage iNOS.
Regarding `CNCCc1cc(F)c(F)c(CCc2cc(C)cc(N)n2)c1` [Compound 60, 6-(2,3-Difluoro-5-(2-(methylamino)ethyl)phenethyl)-4-methylpyridin-2-amine], the Ki on rat nNOS was 28 nM; at human iNOS, 1750 nM; on human nNOS, 24 nM. The molecule further returned a Selectivity hn/hi at human nNOS (Table 5) of 72. The molecule further came in with a Selectivity hn/rn at human nNOS (Table 5) of 1.2.
For `Cc1cc(N)nc(CCCN(C)C)c1` [Compound 69, 6-(3-(Dimethylamino)propyl)-4-methylpyridin-2-amine hydrochloride], the Ki was 537 nM at human eNOS, 2830 nM at human iNOS (setting [1]) and 29 nM at human nNOS (setting [2]).
